Data reported in PubChem BioAssay AID1794825.

Biological target: Sodium- and chloride-dependent glycine transporter 2 (Homo sapiens) (UniProt Q9Y345)
Test: PubChem AID 1794825
Details: HEK-293 SLC6A5 OE, FLIPR membrane potential dye

Chain of Sodium- and chloride-dependent glycine transporter 2 (Homo sapiens) (Q9Y345 whole entry, looked up): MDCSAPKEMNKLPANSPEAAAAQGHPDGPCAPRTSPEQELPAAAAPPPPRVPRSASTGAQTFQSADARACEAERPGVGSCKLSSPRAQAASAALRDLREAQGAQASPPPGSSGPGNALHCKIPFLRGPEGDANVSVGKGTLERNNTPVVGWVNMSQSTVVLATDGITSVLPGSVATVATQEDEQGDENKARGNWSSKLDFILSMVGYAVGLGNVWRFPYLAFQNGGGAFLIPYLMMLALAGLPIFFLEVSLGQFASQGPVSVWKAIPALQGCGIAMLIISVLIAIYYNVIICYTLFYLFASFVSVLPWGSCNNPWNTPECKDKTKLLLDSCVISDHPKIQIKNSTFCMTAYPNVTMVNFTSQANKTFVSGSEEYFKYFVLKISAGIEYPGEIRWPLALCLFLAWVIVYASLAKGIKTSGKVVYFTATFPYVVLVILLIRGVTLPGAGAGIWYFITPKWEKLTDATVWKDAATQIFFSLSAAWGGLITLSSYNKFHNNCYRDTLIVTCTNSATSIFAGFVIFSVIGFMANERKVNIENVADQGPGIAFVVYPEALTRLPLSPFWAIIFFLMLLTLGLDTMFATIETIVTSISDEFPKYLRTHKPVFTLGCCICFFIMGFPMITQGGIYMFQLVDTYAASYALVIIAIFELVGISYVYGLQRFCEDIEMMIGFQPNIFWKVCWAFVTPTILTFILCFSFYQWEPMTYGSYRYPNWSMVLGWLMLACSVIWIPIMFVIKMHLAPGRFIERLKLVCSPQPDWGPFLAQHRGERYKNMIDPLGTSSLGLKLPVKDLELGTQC

SMILES: NCC(=O)O
- EC50: 128 µM
